Blank lines part the entries; values can stand above or below the molecule they belong to.
Assays:
Type in all cases: physicochemical
[1] = Solubility of budesonide in 0.25x McIlvaine buffer with/without propylene glycol, saponin, dexpanthenol (Examples 5-9)
Description: (§1) Budesonide was analyzed by RP-HPLC (UV absorbance detection at 244 nm) using isocratic elution with 55% acetonitrile 0.01% TFA/45% water 0.01% TFA at 1 ml/min for 7 min on an Agilent Zorbax SB C18 3.5 μm 4.6×150 mm column with 4×4 mm RP8 pre-column. From the budesonide-containing samples 40 μl were injected and analyzed.
Buffer • B . . . 5% propylene glycol • C . . . 10% propylene glycol • D . . . 15% propylene glycol • y-axis . . . concentration of dissolved budesonide
FIGS. 2a and 2b refer to the concentrations of budesonide still dissolved after one month of storage at ambient temperature (T˜20-25° C.) in 0.25× McIlvaine buffer containing 5% (FIG. 2a) and 10% (FIG. 2b) propylene glycol (maximum concentration 550 μg/ml budesonide). […] Further increase of escin concentration remains substantially without additional benefit. […] 0% Dexpanthenol • B . . . 1% Dexpanthenol • C . . . 2% Dexpanthenol • D . . . 5% Dexpanthenol • y-axis . . . μg/ml dissolved budesonide • x-axis . . . w/v % Escin
FIGS. 3a and 3b are based on data sets identical to those of FIG. 2a/2b but after 3 months of storage at ambient temperature (T˜20-25° C.). • FIG. 3a: 5% propylene glycol; FIG. 3b: 10% propylene glycol • A . . . 0% Dexpanthenol • B . . . 1% Dexpanthenol • C . . . 2% Dexpanthenol • D . . . 5% Dexpanthenol • y-axis . . . μg/ml dissolved budesonide • x-axis . . . w/v % Escin
FIG. 4 represents that 0.03% w/v escin and 5% v/v dexpanthenol independently increase the solubility of budesonide in McIlvaine buffer in the absence of propylene glycol. […] Yet, the solubility of budesonide in this buffer system, i.e., in the absence of propylene glycol, remains at or below the corresponding values achieved in the presence of propylene glycol alone, i.e., in the absence of escin and dexpanthenol (see FIGS. 2a, b and 3a, b). The only exception being the value at column D which moderately exceeds the solubility values achieved with propylene glycol alone. • A . . . 0% Escin/0% Dexpanthenol • B . . . 0% Escin/5% Dexpanthenol • C . . . 0.03% Escin/0% Dexpanthenol • D . . . 0.03% Escin/5% Dexpanthenol • y-axis . . . concentration of dissolved budesonide in [μg/ml]
For Quillaja saponins, but not for glycyrrhizin, this applies also at a saponin concentration of 0.1%. […] Escin • B . . . Glycyrrhizin • C . . . Quillaja extract • * . . . w/v % Saponin component (escin, glycyrrhizin or Quillaja ext.) • # . . . v/v % Dexpanthenol • y-axis . . . concentration of dissolved budesonide

[2] = Budesonide solubility and storage stability in the presence of carrageenan (Examples 1, 2, 12, 13); conditions: 1.2 g/L iota-carrageenan, optionally 0.4 g/L kappa-carrageenan; 5% or 10% propylene glycol
Description: Samples of series A (0% dexpanthenol): 2.5 ml solution containing the respective escin concentration (McIlvaine 0.01%, 0.02%, 0.03% or McIlvaine buffer) were mixed with 5 ml carrageenan stock solution and 0.5 ml budesonide pre-solution and filled up to 10 ml with distilled water.
Samples of series B (2% dexpanthenol): 2.5 ml solution containing the respective escin concentration (McIlvaine 0.01%, 0.02%, 0.03% or McIlvaine buffer) were mixed with 0.2 ml dexpanthenol, 5 ml carrageenan stock solution and 0.5 ml budesonide pre-solution and filled up to 10 ml with distilled water. […]
After 3 months storage at room temperature, samples were taken and centrifuged for 11 min at 15700 rcf. The clear supernatant was filled into glass vials and the concentration of dissolved budesonide (maximal 500 μg/ml) was measured in duplicates by HPLC.
as §1, with “analyzed. […]” for “analyzed.”

[3] = Saturation concentrations of drugs in buffered solvent, HPLC of supernatant (Example 4); conditions: for Saturation concentration in 10% propylene glycol or DMSO without escin or dexpanthenol / Saturation concentration in 10% propylene glycol or DMSO, 0.1% escin and 5% dexpanthenol: McIlvaine buffer pH 6.0, compound pre-dissolved in propylene glycol
Description: 250 μl “McIlvaine 0.1%” were mixed with 50 μl dexpanthenol stock solution, brought to 900 μl with distilled water, and combined and vigorously mixed with 100 μl experimental compound pre-dissolved resp. pre-suspended in propylene glycol. Alternative solutions with compound pre-dilutions/pre-suspensions in DMSO were prepared. Samples were centrifuged for 10 min at 15800 rcf. Aliquots of the clear supernatants were transferred into autosampler glass vials and the content of the dissolved experimental compounds was analyzed by HPLC using isocratic elution with 70% or 80% acetonitrile 0.01% TFA/[…] or 30% water 0.01% TFA at 1 ml/min and 50° C. for 10 min on an Agilent Zorbax Eclipse Plus C18 column (3.5 μm, 4.6×150 mm) and UV absorbance detection at the wavelengths appropriate for the respective experimental compound.

[4] = Micelle formation of saponins, Hoechst 33342 fluorescence
Description: In water and aqueous buffers containing a detergent below the critical micelle concentration fluorescence of the Hoechst 33342 dye is almost undetectable. Upon increase of the detergent concentration until the critical micelle concentration is reached micelles begin to form and the dye starts getting incorporated into the micelles, whereupon an increase of a fluorescence signal can be detected. For the experiments of this example, the dye was mixed at a final concentration of 7 μM with aqueous buffer comprising different concentrations of saponin in black, flat and clear bottom 96-well plates and emission spectra were measured using a microplate reader (filters used: ex=355 nm and em=460 nm). Finally, data were background corrected.

Saturation concentration in 10% propylene glycol or DMSO, escin and 5% dexpanthenol ([3]; 0.03% escin): 126 µg/mL
Saturation concentration in 10% propylene glycol or DMSO, saponin and 5% dexpanthenol ([3]; 2% glycyrrhizin instead of escin): 285 µg/mL
Saturation concentration in 10% propylene glycol or DMSO without escin or dexpanthenol [3]: <0.2 µg/mL
SMILES: COc1cc(/C=C/C(=O)CC(=O)/C=C/c2ccc(O)c(OC)c2)ccc1O [Curcumin]

Saturation concentration in 10% propylene glycol or DMSO without escin or dexpanthenol [3]: 2.71 µg/mL
Saturation concentration in 10% propylene glycol or DMSO, 0.1% escin and 5% dexpanthenol [3]: 32.7 µg/mL
SMILES: CC(=O)O[C@H]1C(=O)[C@@]2(C)[C@H]([C@H](OC(=O)c3ccccc3)[C@]3(O)C[C@H](OC(=O)[C@H](O)[C@@H](NC(=O)c4ccccc4)c4ccccc4)C(C)=C1C3(C)C)[C@]1(OC(C)=O)CO[C@@H]1C[C@@H]2O [Paclitaxel]

Saturation concentration in 10% propylene glycol or DMSO without escin or dexpanthenol [3]: 132 µg/mL
Saturation concentration in 10% propylene glycol or DMSO, 0.1% escin and 5% dexpanthenol [3]: 774 µg/mL
SMILES: C=CC[C@@H]1/C=C(\C)C[C@H](C)C[C@H](OC)[C@H]2O[C@@](O)(C(=O)C(=O)N3CCCC[C@H]3C(=O)O[C@H](/C(C)=C/[C@@H]3CC[C@@H](O)[C@H](OC)C3)[C@H](C)[C@@H](O)CC1=O)[C@H](C)C[C@@H]2OC.O [Tacrolimus/FK506, Tacrolimus]

More lines, now with the values behind:

SMILES: CCCC1O[C@@H]2C[C@H]3[C@@H]4CCC5=CC(=O)C=C[C@]5(C)[C@H]4[C@@H](O)C[C@]3(C)[C@]2(C(=O)CO)O1 (stereo partly shown) [Budesonide]
effect of escin on solubility of the steroid ([1]; 0.01-0.02% w/v escin, 5% or 10% propylene glycol, one month storage at ambient temperature): dramatically increases the solubility
combined effect of escin and dexpanthenol on budesonide solubility ([1]; 0.03% escin and 5% dexpanthenol, McIlvaine buffer, no propylene glycol): synergy seems to occur
effect of dexpanthenol on stability of the experimental solutions ([1]; 3 months storage at ambient temperature, particularly at 5% propylene glycol and very low escin): seems to improve the stability
effect of glycyrrhizin and Quillaja saponaria extract saponins on steroid solubility ([1]; in the absence of dexpanthenol): without substantial effect
effect of carrageenans on solubility of the steroid [2]: do not substantially interfere with the solubility

SMILES: CC[C@@H]1/C=C(\C)C[C@H](C)C[C@H](OC)[C@H]2O[C@@](O)(C(=O)C(=O)N3CCCC[C@H]3C(=O)O[C@H](/C(C)=C/[C@@H]3CC[C@H](Cl)[C@H](OC)C3)[C@H](C)[C@@H](O)CC1=O)[C@H](C)C[C@@H]2OC [Pimecrolimus]
Saturation concentration in 10% propylene glycol or DMSO, saponin and 5% dexpanthenol ([3]; 1% glycyrrhizin instead of escin): 34.5 µg/mL
Saturation concentration in 10% propylene glycol or DMSO without escin or dexpanthenol [3]: <0.1 µg/mL

SMILES: CC1(C)[C@@H](O[C@H]2O[C@H](C(=O)O)[C@@H](O)[C@H](O)[C@H]2O[C@@H]2O[C@H](C(=O)O)[C@@H](O)[C@H](O)[C@H]2O)CC[C@]2(C)[C@H]3C(=O)C=C4[C@@H]5C[C@@](C)(C(=O)O)CC[C@]5(C)CC[C@@]4(C)[C@]3(C)CC[C@@H]12 [glycyrrhizin]
concentration sufficient to trigger the formation of micelles (same RFU level) ([4]; Hoechst 33342 dye 7 μM, room temperature): 0.5%
increase of required concentration relative to escin ([4]; same fluorescence level): 25 fold
